In US6627628B1, “Substituted 4-amino-2-aryl-cyclopenta[d]pyrimidines, their production and use and pharmaceutical preparations containing same” (Aventis Pharma Deutschland, GmbH, priority 1998, dated 2003) one finds melting point data, which are given here for 31 molecules.

As a reminder, the melting point is the temperature, or range, at which the solid turns liquid. Molecule `Clc1ccc(-c2nc3c(c(N4CCSCC4)n2)CCC3)cc1` [Example 24, 2-(4-Chlorophenyl)-4-thiomorpholino-6,7-dihydro-5H-cyclopenta[d]pyrimidine] registered a melting point of 159 °C.

Molecule `Cc1ccc(-c2nc3c(c(N4CCCC4)n2)CCC3)cc1` [Example 46, 2-(4-Methylphenyl)-4-pyrrolidino-6,7-dihydro-5H-cyclopenta[d]pyrimidine] returned a melting point of 203 °C. `COCCCNc1nc(-c2ccc(OC)c(OC)c2)nc2c1CCC2` [Example 62, 2-(3,4-Dimethoxyphenyl)-4-(3-methoxypropylamino)-6,7-dihydro-5H-cyclopenta-[d]pyrimidine] had a melting point of 107 °C. In turn, `CCCN(CCC)c1nc(-c2ccc(OC)cc2)nc2c1CCC2` [Example 59, 2-(4-Methoxyphenyl)-4-dipropylamino-6,7-dihydro-5H-cyclopenta[d]pyrimidine] yielded a melting point of 74 °C.

Regarding `N#Cc1ccc(-c2nc3c(c(NCc4ccccc4)n2)CCC3)cc1` [Example 70, 2-(4-Cyanophenyl)-4-benzylamino-6,7-dihydro-5H-cyclopenta[d]pyrimidine], the melting point came out at 168 °C. The same measure for `Clc1ccc(-c2nc3c(c(NCc4cccnc4)n2)CCC3)cc1` [Example 19, 2-(4-Chlorophenyl)-4-((3-pyridylmethyl)amino)-6,7-dihydro-5H-cyclopenta[d]-pyrimidine]: 209 °C; for `Clc1cc(Cl)cc(-c2nc3c(c(N4CCCCC4)n2)CCC3)c1` [Example 53, 2-(3,5-Dichlorophenyl)-4-piperidino-6,7-dihydro-5H-cyclopenta[d]pyrimidine]: 147 °C; for `Cc1ccc(-c2nc3c(c(N4CCSCC4)n2)CCC3)cc1` [Example 47, 2-(4-Methylphenyl)-4-thiomorpholino-6,7-dihydro-5H-cyclopenta[d]pyrimidine]: 160 °C. Regarding `CC(C)CNc1nc(-c2ccc(Cl)cc2)nc2c1CCC2` [Example 29, 2-(4-Chlorophenyl)-4-isobutylamino-6,7-dihydro-5H-cyclopenta[d]pyrimidine], the melting point was determined as 121 °C. As for `N#Cc1ccc(-c2nc3c(c(N4CCOCC4)n2)CCC3)cc1` [Example 73, 2-(4-Cyanophenyl)-4-morpholino-6,7-dihydro-5H-cyclopenta[d]pyrimidine], the figure is 247 °C; as for `COc1ccc(-c2nc3c(c(NC4CCCCC4)n2)CCC3)cc1OC` [Example 64, 2-(3,4-Dimethoxyphenyl)-4-cyclohexylamino-6,7-dihydro-5H-cyclopenta[d]-pyrimidine], 70 °C. Regarding `COc1ccc(-c2nc3c(c(N(CCO)CCO)n2)CCC3)cc1OC` [Example 68, 2-(3,4-Dimethoxyphenyl)-4-(di-(2-hydroxyethyl)amino)-6,7-dihydro-5H-cyclopenta[d]pyrimidine], the melting point was found to be 115 °C. Consider `CCN(CC)c1nc(-c2ccc(C#N)cc2)nc2c1CCC2` [Example 71, 2-(4-Cyanophenyl)-4-diethylamino-6,7-dihydro-5H-cyclopenta[d]pyrimidine], for which the melting point came out at 130 °C. Turning to `CCCCNc1nc(-c2ccc(OC)c(OC)c2)nc2c1CCC2` [Example 65, 2-(3,4-Dimethoxyphenyl)-4-butylamino-6,7-dihydro-5H-cyclopenta[d]pyrimidine], the melting point stood at 115 °C. With `CCCN(CCC)c1nc(-c2ccc(OC)c(OC)c2)nc2c1CCC2` [Example 66, 2-(3,4-Dimethoxyphenyl)-4-dipropylamino-6,7-dihydro-5H-cyclopenta[d]-pyrimidine], the melting point turned out to be 107 °C. `OCCNc1nc(-c2cccc(Cl)c2)nc2c1CCC2` [Example 21, 2-(3-Chlorophenyl)-4-(2-hydroxyethylamino)-6,7-dihydro-5H-cyclopenta[d]-pyrimidine]: the melting point is 150 °C.

`COc1ccc(-c2nc3c(c(NCCCO)n2)CCC3)cc1` [Example 54, 2-(4-Methoxyphenyl)-4-(3-hydroxypropylamino)-6,7-dihydro-5H-cyclopenta[d]-pyrimidine] returned a melting point of 165 °C. As for `Clc1cccc(-c2nc3c(c(N4CCCC4)n2)CCC3)c1` [Example 36, 2-(3-Chlorophenyl)-4-pyrrolidino-6,7-dihydro-5H-cyclopenta[d]pyrimidine], the figure is 150 °C; as for `Clc1cccc(-c2nc3c(c(NCc4cccnc4)n2)CCC3)c1` [Example 22, 2-(3-Chlorophenyl)-4-((3-pyridylmethyl)amino)-6,7-dihydro-5H-cyclopenta[d]-pyrimidine], 185 °C. As for `N#Cc1ccc(-c2nc3c(c(NCc4cccnc4)n2)CCC3)cc1` [Example 74, 2-(4-Cyanophenyl)-4-((3-pyridylmethyl)amino)-6,7-dihydro-5H-cyclopenta[d]-pyrimidine], the figure is 219 °C; as for `COc1ccc(-c2nc3c(c(N4CC(C)OC(C)C4)n2)CCC3)cc1OC` (stereo not shown) [Example 67, 2-(3,4-Dimethoxyphenyl)-4-(2,6-dimethylmorpholino)-6,7-dihydro-5H-cyclopenta[d]pyrimidine], 142 °C. Consider `COCCNc1nc(-c2ccc(Cl)cc2)nc2c1CCC2.Cl`, for which the melting point is 208 °C. As for `COc1ccc(-c2nc3c(c(NCCc4ccccc4Cl)n2)CCC3)cc1` [Example 58, 2-(4-Methoxyphenyl)-4-(2-(2-chlorophenyl)ethylamino)-6,7-dihydro-5H-cyclopenta[d]pyrimidine], the figure is 145 °C. In turn, `COCCCNc1nc(-c2ccc(C#N)cc2)nc2c1CCC2` [Example 69, 2-(4-Cyanophenyl)-4-(3-methoxypropylamino)-6,7-dihydro-5H-cyclopenta[d]-pyrimidine] came in with a melting point of 130 °C.

The molecule `COc1ccc(-c2nc3c(c(NC4CCCC4)n2)CCC3)cc1OC` [Example 63, 2-(3,4-Dimethoxyphenyl)-4-cyclopentylamino-6,7-dihydro-5H-cyclopenta[d]-pyrimidine] displayed a melting point of 138 °C. The molecule `COc1cccc(CCNc2nc(-c3cccc(Cl)c3)nc3c2CCC3)c1.Cl` showed a melting point of 192 °C. As for `COc1ccc(-c2nc3c(c(N4CCCCCC4)n2)CCC3)cc1` [Example 60, 2-(4-Methoxyphenyl)-4-hexamethyleneimino-6,7-dihydro-5H-cyclopenta[d]-pyrimidine], the figure is 99 °C. Take `CCCCNc1nc(-c2ccc(OC)cc2)nc2c1CCC2` [Example 55, 2-(4-Methoxyphenyl)-4-butylamino-6,7-dihydro-5H-cyclopenta[d]pyrimidine]: the melting point was determined as 119 °C. As for `COc1ccc(-c2nc3c(c(NC4CCCC4)n2)CCC3)cc1` [Example 56, 2-(4-Methoxyphenyl)-4-cyclopentylamino-6,7-dihydro-5H-cyclopenta[d]-pyrimidine], the figure is 154 °C; as for `CC1(C)CC(Nc2nc(-c3cccc(Cl)c3)nc3c2CCC3)CC(C)(C)N1` [Example 31, 2-(3-Chlorophenyl)-4-(2,2,6,6-tetramethylpiperidin-4-ylamino)-6,7-dihydro-5H-cyclopenta[d]pyrimidine], 182 °C. The same measure for `Clc1cccc(-c2nc3c(c(N4CCSCC4)n2)CCC3)c1` [Example 38, 2-(3-Chlorophenyl)-4-thiomorpholino-6,7-dihydro-5H-cyclopenta[d]pyrimidine]: 134 °C.
